Source: US20240166652A1, “MODULATORS OF THE INTEGRATED STRESS PATHWAY” (Calico Life Sciences LLC, priority 2017, published 2024)
pEC50: −log10 of the molar value.

What follows are compounds tested on ATF4 luciferase reporter in HEK293T cells (assay: ATF4-Luc assay (ATF4 luciferase reporter, tunicamycin-treated HEK293T cells)). Conditions: Homo sapiens, HEK-293T; HEK293T cells carrying the ATF4 luciferase reporter, 1 μg/mL tunicamycin, 7 hours.
Type: cell-based, human

Row | Compound | pEC50
1 | CC(=O)N(CC(=O)NC12CC(NC(=O)COc3ccc(Cl)c(F)c3)(C1)C2)c1ccc(Cl)cc1 [Compound 205, M-acetyl-N-{3-[2-(4-chloro-3-fluorophenoxy)acetamido]bicyclo-[1.1.1]pentan-1-yl}-N^2-(4-chlorophenyl)glycinamide] | < 5.70
2 | O=C(COc1ccc(F)c(F)c1)NC12CCC(NC(=O)COc3ccc(F)c(OC(F)F)c3)(CC1)[C@@H](O)C2 [Compound 796, 2-[3-(difluoromethoxy)-4-fluorophenoxy]-N-{(2S)-4-[2-(3,4-difluorophenoxy)acetamido]-2-hydroxybicyclo[2.2.2]octan-1-yl}acetamid6] | 7.30 to 8.00
3 | Cc1cccc(COCC(=O)NC23CC(NC(=O)COc4ccc(Cl)c(Cl)c4)(C2)C3)c1 [Compound 162, 2-(3,4-dichlorophenoxy)-N-(3-{2-[(3-methylphenyl)methoxy]-acetamido}bicyclo[1.1.1]pentan-1-yl)acetamide] | 7.30 to 8.00
4 | N#CC1CC2(NC(=O)COc3ccc(Cl)c(F)c3)CCC1(NC(=O)COc1ccc(Cl)c(F)c1)CC2 (stereo not shown) [Compound 387, N,N′-(2-cyanobicyclo[2.2.2]octane-1,4-diyl)bis[2-(4-chloro-3-fluorophenoxy)acetamide]] | > 8.00
5 | O=C(COc1ccc(F)c(C(F)F)c1)NC12CCC(NC(=O)COc3ccc(Cl)c(F)c3)(CC1)[C@@H](O)C2 [Compound 790, 2-(4-chloro-3-fluorophenoxy)-N-[(2S)-4-{2-[3-(difluoromethyl)-4-fluorophenoxy]acetamido}-2-hydroxybicyclo[2.2.2]octan-1-yl]acetamide] | > 8.00
6 | O=C(COc1ccc(F)cc1)NC12CCC(NC(=O)COc3ccc(Cl)c(F)c3)(CC1)C(O)C2 (stereo not shown) [Compound 330, 2-(4-chloro-3-fluorophenoxy)-N-{4-[2-(4-fluorophenoxy)acetamido]-2-hydroxybicyclo[2.2.2]octan-1-yl}acetamide] | > 8.00
7 | O=C(COc1cc(F)c2cn[nH]c2c1)NC12CCC(NC(=O)COc3ccc4cn[nH]c4c3)(CC1)[C@@H](O)C2 [Compound 709] | > 8.00
8 | O=C(COCc1cccc(C(=O)O)c1)NC12CC(NC(=O)COc3ccc(Cl)c(F)c3)(C1)C2 [Compound 212, 3-{[2-({3-[2-(4-chloro-3-fluorophenoxy)acetamido]bicyclo[1.1.1]pentan-1-yl}amino)-2-oxoethoxy]methyl}benzoic Acid] | < 5.70
9 | O=C(COc1ccc(Cl)c(F)c1)NC12CC(NC(=O)OCc3ccccc3)(C1)C2 [Compound 192, benzyl {3-[2-(4-chloro-3-fluorophenoxy)acetamido]bicyclo[1.1.1]pentan-1-yl}carbamate] | 5.70 to 6.30
10 | O=C(COc1ccc(Cl)c(F)c1)N[C@]12CC[C@](NC(=O)COc3ccc(Cl)c(F)c3)(C1)[C@@H](O)C2 (racemic) [Compound 585, rac-N,N′-[(1S,2S,4R)-2-hydroxybicyclo[2.2.1]heptane-1,4-diyl]bis[2-(4-chloro-3-fluorophenoxy)acetamide]] | > 8.00
11 | O=C(COc1ccc(Cl)c(F)c1)NC12CCC(NC(=O)OCc3ccccc3)(C1)C2 [Compound 180, benzyl {4-[2-(4-chloro-3-fluorophenoxy)acetamido]bicyclo[2.1.1]hexan-1-yl}carbamate] | 6.60 to 7.30
12 | CN(CCC(=O)O)C1CC2(NC(=O)COc3ccc(Cl)c(F)c3)CCC1(NC(=O)COc1ccc(Cl)c(F)c1)CC2 (stereo not shown) [Compound 698, 3-[{1,4-bis[2-(4-chloro-3-fluorophenoxy)acetamido]bicyclo[2.2.2]octan-2-yl}(methyl)amino]propanoic Acid] | 6.30 to 6.60
13 | O=C(COc1ccc(Cl)c(F)c1)NC12CC(NC(=O)Cc3cccc(C(F)(F)F)c3)(C1)C2 [Compound 457, 2-(4-chloro-3-fluorophenoxy)-N-(3-{2-[3-(trifluoromethyl)phenyl]acetamido}bicyclo[1.1.1]pentan-1-yl)acetamide] | < 5.70
14 | O=C(COc1ccc(F)cc1)NC12CC(NC(=O)COc3ccc(Cl)c(F)c3)(C1)C2 [Compound 408, 2-(4-chloro-3-fluorophenoxy)-N-{3-[2-(4-fluorophenoxy)acetamido]bicyclo[1.1.1]pentan-1-yl}acetamide] | > 8.00
15 | O=C(COc1ccc(Cl)c(F)c1)NC12CCC(NC(=O)COc3cncc(C(F)(F)F)c3)(CC1)C(O)C2 (stereo not shown) [Compound 306, 2-(4-chloro-3-fluorophenoxy)-N-[3-hydroxy-4-(2-{[5-(trifluoromethyl)pyridin-3-yl]oxy}acetamido)bicyclo[2.2.2]octan-1-yl]acetamide] | > 8.00
16 | O=C(COc1ccc(Cl)c(F)c1)NC12CCC(NCCOc3ccc(F)cc3)(CC1)C(O)C2 (stereo not shown) [Compound 331, 2-(4-chloro-3-fluorophenoxy)-N-(4-{[2-(4-fluorophenoxy)ethyl]amino}-3-hydroxybicyclo[2.2.2]octan-1-yl)acetamide] | > 8.00
17 | CN(C(=O)COc1ccc(Cl)c(Cl)c1)C12CC(NC(=O)COc3ccc(Cl)cc3)(C1)C2 [Compound 199, N-{3-[2-(4-chlorophenoxy)acetamido]bicyclo[1.1.1]pentan-1-yl}-2-(3,4-dichlorophenoxy)-N-methylacetamide] | 6.60 to 7.30

Row | Compound | pEC50
18 | COc1cc(Cl)ccc1OCC(=O)NC12CC(NC(=O)COc3ccc(Cl)c(F)c3)(C1)C2 [Compound 412, 2-(4-chloro-3-fluorophenoxy)-N-{3-[2-(4-chloro-2-methoxyphenoxy)acetamido]bicyclo[1.1.1]pentan-1-yl}acetamide] | 6.60 to 7.30
19 | CC(C)(CNC12CC(NC(=O)COc3ccc(Cl)c(F)c3)(C1)C2)Oc1ccc(Cl)cc1 [Compound 641, 2-(4-chloro-3-fluorophenoxy)-N-(3-{[2-(4-chlorophenoxy)-2-methylpropyl]amino}bicyclo[1.1.1]pentan-1-yl)acetamide] | < 5.70
20 | O=C(COc1ccc(Cl)c(F)c1)NC12CCC(NC(=O)COc3ccc(C(F)(F)F)nc3)(CC1)C(F)C2 (single isomer, unassigned) [Compound 372] | 6.60 to 7.30
21 | O=C(COc1ccc(C(F)(F)F)c(F)c1)NC12CCC(NC(=O)COc3ccc(F)c(F)c3)(CC1)[C@@H](O)C2 [Compound 842, 2-(3,4-difluorophenoxy)-N-[(2S)-4-{2-[3-fluoro-4-(trifluoromethyl)phenoxy]acetamido}-2-hydroxybicyclo[2.2.2]octan-1-yl]acetamide] | > 8.00
22 | O=C(COc1ccc(Cl)c(F)c1)NC12CC(COc3ccccc3)(C1)C2 [Compound 612, 2-(4-chloro-3-fluorophenoxy)-N-[3-(phenoxymethyl)bicyclo[1.1.1]pentan-1-yl]acetamide] | < 5.70
23 | O=C(COc1ccc(Cl)nc1)NC12CC(NC(=O)COc3ccc(Cl)c(F)c3)(C1)C2 [Compound 225, 2-(4-chloro-3-fluorophenoxy)-N-(3-{2-[(6-chloropyridin-3-yl)oxy]acetamido}bicyclo[1.1.1]pentan-1-yl)acetamide] | 7.30 to 8.00
24 | O=C(COc1ccc(Cl)c(F)c1)NC12CCC(NC(=O)COc3ccc(Cl)c(F)c3)(CC1=O)C(=O)C2 [Compound 561, N,N′-(2,5-dioxobicyclo[2.2.2]octane-1,4-diyl)bis[2-(4-chloro-3-fluorophenoxy)acetamide]] | > 8.00
25 | O=C(COCCc1ccc(Cl)cc1)NC12CC(NC(=O)COc3ccc(Cl)c(F)c3)(C1)C2 [Compound 135, 2-(4-chloro-3-fluorophenoxy)-N-(3-{2-[2-(4-chlorophenyl)ethoxy]acetamido}-bicyclo[1.1.1]pentan-1-yl)acetamide] | 6.30 to 6.60
26 | COC(=O)[C@H]1CC2(NC(=O)COc3ccc(Cl)c(F)c3)CCC1(NC(=O)COc1ccc(Cl)c(F)c1)CC2 [Compound 562, methyl (2S)-1,4-bis[2-(4-chloro-3-fluorophenoxy)acetamido]bicyclo[2.2.2]octane-2-carboxylate] | > 8.00
27 | Cc1noc2cc(OCC(=O)NC34CC(NC(=O)COc5ccc(Cl)c(F)c5)(C3)C4)ccc12 [Compound 110, 2-(4-chloro-3-fluorophenoxy)-N-(3-{2-[(3-methyl-1,2-benzoxazol-6-yl)oxy]acetamido}bicyclo[1.1.1]pentan-1-yl)acetamide] | 5.70 to 6.30
28 | O=C(COc1ccc(Cl)c(F)c1)NC12CCC(NC(=O)COc3ccc4c(c3)OC(F)(F)O4)(C1)C2 [Compound 380, 2-(4-chloro-3-fluorophenoxy)-N-(4-{2-[(2,2-difluoro-2H-1,3-benzodioxol-5-yl)oxy]acetamido}bicyclo[2.1.1]hexan-1-yl)acetamide] | 7.30 to 8.00
29 | O=C(COc1ccc(Cl)c(F)c1)NC12CCC(NC(=O)COc3ccc(F)cc3)(CC1)[C@@H](O)C2 (single isomer, unassigned) [Compound 354] | > 8.00
30 | COc1ncc(OCC(=O)NC23CCC(NC(=O)COc4ccc(Cl)c(F)c4)(CC2)C(=O)N3)cn1 [Compound 690, 2-(4-chloro-3-fluorophenoxy)-N-(1-{2-[(2-methoxypyrimidin-5-yl)oxy]acetamido}-3-oxo-2-azabicyclo[2.2.2]octan-4-yl)acetamide] | 6.30 to 6.60
31 | O=C(COc1cnc(OCC(F)(F)F)nc1)NC12CCC(NC(=O)COc3ccc(Cl)c(F)c3)(CC1)[C@@H](O)C2 [Compound 629, 2-(4-chloro-3-fluorophenoxy)-N-[(2S)-2-hydroxy-4-(2-{[2-(2,2,2-trifluoroethoxy)pyrimidin-5-yl]oxy}acetamido)bicyclo[2.2.2]octan-1-yl]acetamide] | 6.60 to 7.30
32 | O=C(Cc1ccc(C(F)(F)F)cn1)NC12CCC(NC(=O)COc3ccc(Cl)c(F)c3)(CC1)C(O)C2 (stereo not shown) [Compound 356, 2-(4-chloro-3-fluorophenoxy)-N-(2-hydroxy-4-{2-[5-(trifluoromethyl)pyridin-2-yl]acetamido}bicyclo[2.2.2]octan-1-yl)acetamide] | 7.30 to 8.00
33 | O=C(COc1ccnc(C(F)F)c1)NC12CC(NC(=O)COc3ccc(Cl)c(F)c3)(C1)C2 [Compound 378, 2-(4-chloro-3-fluorophenoxy)-N-[3-(2-{[2-(difluoromethyl)pyridin-4-yl]oxy}acetamido)bicyclo[1.1.1]pentan-1-yl]acetamide] | 7.30 to 8.00
34 | O=C(COc1ccc(Cl)c(F)c1)NC12CCC(NC(=O)COc3ccc(C4CC4)nc3)(CC1)C(O)C2 (stereo not shown) [Compound 311, 2-(4-chloro-3-fluorophenoxy)-N-(4-{2-[(6-cyclopropylpyridin-3-yl)oxy]acetamido}-3-hydroxybicyclo[2.2.2]octan-1-yl)acetamide] | > 8.00
